Source: patent US8802597B2, “Herbicidal pyrimidines” (E I du Pont de Nemours and Company, priority 2003, dated 2014)

Columns and labels:
Experiment in all cases: Test D pre/postemergence
Format in all cases: in vivo
Conditions in all cases: scale 0 to 100 (100 = complete control)
kochia (Kochia scoparia) = test system: kochia (Kochia scoparia)
Summary of the method: (§1)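 Visual injury score, 0–100 (0 = no effect, 100 = complete control), vs untreated controls after 15–25 d in controlled environment. Pre- and postemergence treatments run in parallel; postemergence at 1–4 leaf, 2–18 cm. Compounds in non-phytotoxic solvent with surfactant.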

[1] = test system: lambsquarters (Chenopodium album)
Summary of the method: as §1

[2] = test system: Russian thistle (Salsola kali)
Summary of the method: as §1

[3] = test system: wild buckwheat (Polygonum convolvulus)
Summary of the method: as §1

[4] = test system: catchweed bedstraw (galium; Galium aparine)
Summary of the method: as §1

[5] = test system: wild mustard (Sinapis arvensis)
Summary of the method: as §1

[6] = test system: wheat (Triticum aestivum)
Summary of the method: as §1

In the case of `CCOC(=O)Cc1nc(C2CC2)nc(N=CN(C)C)c1Br` [Compound 33], the “Plant response rating, Kochia” value (kochia (Kochia scoparia); Postemergence, 62 g ai/ha) is reported as 50, the “Plant response rating, Kochia” value (kochia (Kochia scoparia); Postemergence, 125 g ai/ha) is reported as 50 and the “Plant response rating, Kochia” value (kochia (Kochia scoparia); Postemergence, 250 g ai/ha) is reported as 50. The “Plant response rating, Kochia” value (kochia (Kochia scoparia); Preemergence, 62 g ai/ha) was 60, the “Plant response rating, Kochia” value (kochia (Kochia scoparia); Preemergence, 125 g ai/ha) was 65 and the “Plant response rating, Kochia” value (kochia (Kochia scoparia); Preemergence, 250 g ai/ha) was 65. The “Plant response rating, Lambsquarters” value ([1]; Postemergence, 62 g ai/ha) was 30, the “Plant response rating, Lambsquarters” value ([1]; Postemergence, 125 g ai/ha) was 30 and the “Plant response rating, Lambsquarters” value ([1]; Postemergence, 250 g ai/ha) was 45. For the same compound, the “Plant response rating, Lambsquarters” value ([1]; Preemergence, 62 g ai/ha) was 60, the “Plant response rating, Lambsquarters” value ([1]; Preemergence, 125 g ai/ha) was 65 and the “Plant response rating, Lambsquarters” value ([1]; Preemergence, 250 g ai/ha) was 65. The “Plant response rating, Russian Thistle” value ([2]; Postemergence, 62 g ai/ha) was 30, the “Plant response rating, Russian Thistle” value ([2]; Postemergence, 125 g ai/ha) was 40 and the “Plant response rating, Russian Thistle” value ([2]; Postemergence, 250 g ai/ha) was 40. The “Plant response rating, Russian Thistle” value ([2]; Preemergence, 62 g ai/ha) was 55, the “Plant response rating, Russian Thistle” value ([2]; Preemergence, 125 g ai/ha) was 60 and the “Plant response rating, Russian Thistle” value ([2]; Preemergence, 250 g ai/ha) was 85. The “Plant response rating, Buckwheat, Wild” value ([3]; Postemergence, 62 g ai/ha) was 40, the “Plant response rating, Buckwheat, Wild” value ([3]; Postemergence, 125 g ai/ha) was 50 and the “Plant response rating, Buckwheat, Wild” value ([3]; Postemergence, 250 g ai/ha) was 55. For the same compound, the “Plant response rating, Buckwheat, Wild” value ([3]; Preemergence, 62 g ai/ha) was 55, the “Plant response rating, Buckwheat, Wild” value ([3]; Preemergence, 125 g ai/ha) was 65 and the “Plant response rating, Buckwheat, Wild” value ([3]; Preemergence, 250 g ai/ha) was 65. For the same compound, the “Plant response rating, Galium” value ([4]; Postemergence, 62 g ai/ha) was 55, the “Plant response rating, Galium” value ([4]; Postemergence, 125 g ai/ha) was 60 and the “Plant response rating, Galium” value ([4]; Postemergence, 250 g ai/ha) was 65. The “Plant response rating, Galium” value ([4]; Preemergence, 62 g ai/ha) was 70, the “Plant response rating, Galium” value ([4]; Preemergence, 125 g ai/ha) was 80 and the “Plant response rating, Galium” value ([4]; Preemergence, 250 g ai/ha) was 100. The “Plant response rating, Mustard, Wild” value ([5]; Postemergence, 62 g ai/ha) was 50, the “Plant response rating, Mustard, Wild” value ([5]; Postemergence, 125 g ai/ha) was 50 and the “Plant response rating, Mustard, Wild” value ([5]; Postemergence, 250 g ai/ha) was 50. For the same compound, the “Plant response rating, Mustard, Wild” value ([5]; Preemergence, 62 g ai/ha) was 65, the “Plant response rating, Mustard, Wild” value ([5]; Preemergence, 125 g ai/ha) was 65 and the “Plant response rating, Mustard, Wild” value ([5]; Preemergence, 250 g ai/ha) was 65. For the same compound, the “Plant response rating, Wheat” value ([6]; Postemergence, 62 g ai/ha) was 35, the “Plant response rating, Wheat” value ([6]; Postemergence, 125 g ai/ha) was 40 and the “Plant response rating, Wheat” value ([6]; Postemergence, 250 g ai/ha) was 45. For the same compound, the “Plant response rating, Wheat” value ([6]; Preemergence, 62 g ai/ha) was 15, the “Plant response rating, Wheat” value ([6]; Preemergence, 125 g ai/ha) was 35 and the “Plant response rating, Wheat” value ([6]; Preemergence, 250 g ai/ha) was 55.
In the case of `CCOC(=O)C(OC(C)=O)c1nc(C2CC2)nc(N)c1Br` (stereo not shown) [Compound 47], the “Plant response rating, Kochia” value (kochia (Kochia scoparia); Postemergence, 31 g ai/ha) is reported as 45, the “Plant response rating, Kochia” value (kochia (Kochia scoparia); Postemergence, 62 g ai/ha) is reported as 50 and the “Plant response rating, Kochia” value (kochia (Kochia scoparia); Postemergence, 125 g ai/ha) is reported as 65. For the same compound, the “Plant response rating, Kochia” value (kochia (Kochia scoparia); Postemergence, 250 g ai/ha) was 75, the “Plant response rating, Lambsquarters” value ([1]; Postemergence, 31 g ai/ha) was 35 and the “Plant response rating, Lambsquarters” value ([1]; Postemergence, 62 g ai/ha) was 35. For the same compound, the “Plant response rating, Lambsquarters” value ([1]; Postemergence, 125 g ai/ha) was 40, the “Plant response rating, Lambsquarters” value ([1]; Postemergence, 250 g ai/ha) was 45 and the “Plant response rating, Russian Thistle” value ([2]; Postemergence, 31 g ai/ha) was 45. For the same compound, the “Plant response rating, Russian Thistle” value ([2]; Postemergence, 62 g ai/ha) was 55, the “Plant response rating, Russian Thistle” value ([2]; Postemergence, 125 g ai/ha) was 65 and the “Plant response rating, Russian Thistle” value ([2]; Postemergence, 250 g ai/ha) was 70. For the same compound, the “Plant response rating, Buckwheat, Wild” value ([3]; Postemergence, 31 g ai/ha) was 60, the “Plant response rating, Buckwheat, Wild” value ([3]; Postemergence, 62 g ai/ha) was 65 and the “Plant response rating, Buckwheat, Wild” value ([3]; Postemergence, 125 g ai/ha) was 65. For the same compound, the “Plant response rating, Buckwheat, Wild” value ([3]; Postemergence, 250 g ai/ha) was 70, the “Plant response rating, Galium” value ([4]; Postemergence, 31 g ai/ha) was 65 and the “Plant response rating, Galium” value ([4]; Postemergence, 62 g ai/ha) was 75. The “Plant response rating, Galium” value ([4]; Postemergence, 125 g ai/ha) was 80, the “Plant response rating, Galium” value ([4]; Postemergence, 250 g ai/ha) was 98 and the “Plant response rating, Mustard, Wild” value ([5]; Postemergence, 31 g ai/ha) was 55. The “Plant response rating, Mustard, Wild” value ([5]; Postemergence, 62 g ai/ha) was 60, the “Plant response rating, Mustard, Wild” value ([5]; Postemergence, 125 g ai/ha) was 65 and the “Plant response rating, Mustard, Wild” value ([5]; Postemergence, 250 g ai/ha) was 70. The “Plant response rating, Wheat” value ([6]; Postemergence, 31 g ai/ha) was 30, the “Plant response rating, Wheat” value ([6]; Postemergence, 62 g ai/ha) was 35 and the “Plant response rating, Wheat” value ([6]; Postemergence, 125 g ai/ha) was 35. The “Plant response rating, Wheat” value ([6]; Postemergence, 250 g ai/ha) was 45.
